# How the values were obtained:
# Test in all cases: relative viability (nuclei count vs DMSO), 5 days (fraction); higher = more cells survive
# [1] = compound: COc1ncc(-c2ccc3nccc(-c4ccnnc4)c3c2)cc1NS(=O)(=O)c1ccc(F)cc1F [Omipalisib]
# Outline: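 For viability, nuclei in each treated well were divided by nuclei in vehicle wells and the median across plates was taken. Lung cancer cell lines in 1536-well plates were pinned with five library-drug doses (not always all listed) spaced by √10, cultured 5 days without medium change, and imaged at 4× after Hoechst staining, with plates passing only at control CV below 25% and at least one doubling.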
# [2] = compound: COc1ncc(-c2ccc3nccc(-c4ccnnc4)c3c2)cc1NS(=O)(=O)c1ccc(F)cc1F [Omipalisib] + CC(=O)c1c(C)c2cnc(Nc3ccc(N4CCNCC4)cn3)nc2n(C2CCCC2)c1=O [Palbociclib] (partner 0.5 µM)
# Outline: (§1)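 Dosing by pin tool came one day after lung cancer cell lines were seeded in 1536-well plates, using either one drug or a fixed anchor-drug dose plus five library-drug doses (not always all listed) in √10 steps. After 5 days, nuclei were counted on 4× images. Relative viability is treated-well nuclei count divided by vehicle-well nuclei count, and values are medians of duplicate plates.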
# [3] = compound: COc1ncc(-c2ccc3nccc(-c4ccnnc4)c3c2)cc1NS(=O)(=O)c1ccc(F)cc1F [Omipalisib] + C[C@@H](Oc1cc(-c2cnn(C3CCNCC3)c2)cnc1N)c1c(Cl)ccc(F)c1Cl [Crizotinib] (partner 1 µM)
# Outline: as §1
# [4] = compound: COc1ncc(-c2ccc3nccc(-c4ccnnc4)c3c2)cc1NS(=O)(=O)c1ccc(F)cc1F [Omipalisib] + COc1cc2c(Oc3ccc(NC(=O)C4(C(=O)Nc5ccc(F)cc5)CC4)cc3F)ccnc2cc1OCCCN1CCOCC1 [Foretinib] (partner 0.25 µM)
# Outline: as §1
# [5] = compound: COc1ncc(-c2ccc3nccc(-c4ccnnc4)c3c2)cc1NS(=O)(=O)c1ccc(F)cc1F [Omipalisib] + Cc1cc(Nc2cc(N3CCN(C)CC3)nc(Sc3ccc(NC(=O)C4CC4)cc3)n2)n[nH]1 [Tozasertib] (partner 0.1 µM)
# Outline: as §1
# [6] = compound: COc1ncc(-c2ccc3nccc(-c4ccnnc4)c3c2)cc1NS(=O)(=O)c1ccc(F)cc1F [Omipalisib] + CC(=O)Nc1cccc(-n2c(=O)n(C3CC3)c(=O)c3c(Nc4ccc(I)cc4F)n(C)c(=O)c(C)c32)c1 [Trametinib] (partner 0.02 µM)
# Outline: as §1
Cell Line,relative viability ([1]; 0.0003 µM),relative viability ([1]; 0.003 µM),relative viability ([1]; 0.03 µM),relative viability ([2]; first compound 0.0003 µM),relative viability ([2]; first compound 0.003 µM),relative viability ([2]; first compound 0.03 µM),relative viability ([3]; first compound 0.0003 µM),relative viability ([3]; first compound 0.003 µM),relative viability ([3]; first compound 0.03 µM),relative viability ([4]; first compound 0.0003 µM),relative viability ([4]; first compound 0.003 µM),relative viability ([4]; first compound 0.03 µM),relative viability ([5]; first compound 0.0003 µM),relative viability ([5]; first compound 0.003 µM),relative viability ([5]; first compound 0.03 µM),relative viability ([6]; first compound 0.0003 µM),relative viability ([6]; first compound 0.003 µM),relative viability ([6]; first compound 0.03 µM)
NCI-H647,0.949,0.696,0.42,0.263,0.21,0.179,0.979,0.921,0.443,1.16,0.965,0.603,0.33,0.158,0.0783,0.341,0.278,0.15
NCI-H2170,0.813,0.608,0.587,0.301,0.236,0.173,1.04,0.786,0.418,0.945,0.565,0.565,0.607,0.482,0.354,0.801,0.545,0.303
LCLC-97TM1,1.03,0.586,0.203,0.202,0.14,0.0751,0.243,0.159,0.11,0.934,0.468,0.189,0.169,0.119,0.0744,0.179,0.104,0.117
NCI-H661,1,0.923,0.82,0.403,0.363,0.313,0.969,0.94,0.703,1.06,0.999,0.783,0.366,0.388,0.37,0.605,0.454,0.409
NCI-H1734,0.918,0.648,0.397,0.278,0.238,0.205,0.574,0.38,0.213,0.754,0.446,0.268,0.243,0.233,0.221,0.54,0.362,0.288
H3255,0.93,0.85,0.51,0.365,0.313,0.285,0.859,0.811,0.421,0.731,0.669,0.494,0.554,0.556,0.286,0.56,0.421,0.277
HCC-15,0.973,0.691,0.7,0.748,0.614,0.521,0.793,0.734,0.655,0.944,0.814,0.721,0.373,0.38,0.237,0.32,0.207,0.165
NCI-H2126,0.972,0.687,0.495,0.344,0.344,0.317,0.965,0.866,0.559,1.01,0.718,0.342,0.712,0.612,0.353,0.487,0.397,0.327
NCI-H1915,1.04,0.996,0.952,0.509,0.483,0.446,0.841,0.892,0.863,1.05,1.08,0.983,0.44,0.395,0.421,0.273,0.192,0.201
NCI-H441,0.832,0.574,0.427,0.213,0.19,0.139,0.462,0.32,0.367,0.761,0.657,0.434,0.683,0.451,0.238,0.474,0.232,0.184
NCI-H1437,1,0.837,0.398,0.363,0.307,0.218,0.864,0.894,0.702,1.26,1.35,0.918,0.422,0.348,0.244,0.583,0.31,0.209
LC-2-ad,0.942,0.831,0.556,0.488,0.458,0.299,0.478,0.395,0.253,0.961,0.743,0.411,0.349,0.401,0.289,0.86,0.754,0.605
UMC-11,0.886,0.643,0.823,0.332,0.272,0.299,0.491,0.588,0.434,1.04,0.803,0.795,0.217,0.209,0.22,0.612,0.359,0.36
NCI-H1650,0.861,0.946,0.613,0.274,0.29,0.261,0.794,1.16,0.717,1.19,0.968,0.656,0.401,0.375,0.312,0.438,0.633,0.512
NCI-H1666,1.01,0.818,0.651,0.641,0.632,0.658,0.974,0.743,0.494,0.92,0.819,0.629,0.605,0.524,0.552,0.872,0.592,0.61
NCI-H1993,0.806,0.632,0.623,0.547,0.391,0.393,0.83,0.618,0.63,0.805,0.633,0.594,0.575,0.5,0.499,0.423,0.584,0.509
NCI-H727,1.05,0.68,0.544,0.644,0.487,0.552,0.707,0.649,0.391,0.937,0.609,0.421,0.666,0.623,0.378,0.381,0.337,0.264

# From the supplement of paper PMC10307832
